PubChem BioAssay AID1919007 (Molecular Pharmacology Branch, DTP, NCI, 2023)

Tested on: A498 complex spheroids with HUVEC/MSC, growth
Test: Anticancer human tumor A498 cell line growth inhibition [AhR];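 note: seven day exposure starting three days after spheroid seeding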;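 for viability, T/C: luminescence signal used as a surrogate for viable cells; luminescence viability scaled so 100% equals DMSO vehicle wells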
Conditions: for IC50: curve of first compound; for viability, T/C: stronger effect = lower value
Outline: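 Spheroids combined tumor cells with HUVEC endothelial cells and human MSCs as stroma. AhR antagonists were paired with standard or investigational drugs, each dosed in half-log steps down from near clinical Cmax, or from 10 microM where Cmax was unknown.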

[1] = second compound 0.1 µM, first compound 0.0316 µM
[2] = second compound 0.1 µM, first compound 0.1 µM
[3] = second compound 0.1 µM, first compound 0.316 µM
[4] = second compound 0.1 µM, first compound 1 µM
[5] = second compound 0.316 µM, first compound 0.0316 µM
[6] = second compound 0.316 µM, first compound 0.1 µM
[7] = second compound 0.316 µM, first compound 0.316 µM
[8] = second compound 0.316 µM, first compound 1 µM
[9] = second compound 1 µM, first compound 0.0316 µM
[10] = second compound 1 µM, first compound 0.1 µM
[11] = second compound 1 µM, first compound 0.316 µM
[12] = second compound 1 µM, first compound 1 µM
[13] = second compound 3.16 µM, first compound 0.0316 µM
[14] = second compound 3.16 µM, first compound 0.1 µM
[15] = second compound 3.16 µM, first compound 0.316 µM
[16] = second compound 3.16 µM, first compound 1 µM
[17] = second compound 10 µM, first compound 0.0316 µM
[18] = second compound 10 µM, first compound 0.1 µM
[19] = second compound 10 µM, first compound 0.316 µM
[20] = second compound 10 µM, first compound 1 µM

For `CC1COCCN1c1cc(-c2ccnn2C)c2ccnc(-c3ccn[nH]3)c2n1` (stereo not given) + CC(CO)NC(=O)c1cc(-c2ccc(Cl)cc2)nn(-c2cnn(C)c2)c1=O, the IC50 (second compound 0.1 µM) was 77.7 nM, the IC50 (second compound 0.316 µM) was 78.8 nM and the IC50 (second compound 1 µM) was 72.7 nM. It also gave an IC50 (second compound 3.16 µM) of 62 nM, an IC50 (second compound 10 µM) of 41.7 nM and a viability, T/C (second compound 0.1 µM, first compound 0.00316 µM) of 96.4%. It also gave a viability, T/C (second compound 0.1 µM, first compound 0.01 µM) of 103%, a viability, T/C [1] of 82.3% and a viability, T/C [2] of 40.5%. For the same compound, the viability, T/C [3] was 20.1%, the viability, T/C [4] was 13% and the viability, T/C (second compound 0.316 µM, first compound 0.00316 µM) was 90%. It also gave a viability, T/C (second compound 0.316 µM, first compound 0.01 µM) of 104%, a viability, T/C [5] of 76% and a viability, T/C [6] of 44.1%. For the same compound, the viability, T/C [7] was 17.1%, the viability, T/C [8] was 14.3% and the viability, T/C (second compound 1 µM, first compound 0.00316 µM) was 93.6%. It also gave a viability, T/C (second compound 1 µM, first compound 0.01 µM) of 92.6%, a viability, T/C [9] of 78.6% and a viability, T/C [10] of 39.1%. For the same compound, the viability, T/C [11] was 18.4%, the viability, T/C [12] was 15.7% and the viability, T/C (second compound 3.16 µM, first compound 0.00316 µM) was 88.6%. For the same compound, the viability, T/C (second compound 3.16 µM, first compound 0.01 µM) was 84.9%, the viability, T/C [13] was 70.7% and the viability, T/C [14] was 34.9%. It also gave a viability, T/C [15] of 21.4%, a viability, T/C [16] of 15.4% and a viability, T/C (second compound 10 µM, first compound 0.00316 µM) of 65.7%. The viability, T/C (second compound 10 µM, first compound 0.01 µM) was 68.5%, the viability, T/C [17] was 55.1% and the viability, T/C [18] was 31.6%. For the same compound, the viability, T/C [19] was 20.2% and the viability, T/C [20] was 14%.
`COc1ccc([C@@H](O)c2cc(-c3ncnc4cc(N5CCOCC5)ccc34)c(F)cc2Cl)nn1` + CC(CO)NC(=O)c1cc(-c2ccc(Cl)cc2)nn(-c2cnn(C)c2)c1=O showed an IC50 (second compound 0.1 µM) of 346 nM, an IC50 (second compound 0.316 µM) of 307 nM and an IC50 (second compound 1 µM) of 307 nM. For the same compound, the IC50 (second compound 3.16 µM) was 230 nM, the IC50 (second compound 10 µM) was 74.4 nM and the viability, T/C [1] was 83.6%. It also gave a viability, T/C [2] of 79.5%, a viability, T/C [3] of 49.9% and a viability, T/C [4] of 26.2%. It also gave a viability, T/C (second compound 0.1 µM, first compound 3.16 µM) of 15.1%, a viability, T/C (second compound 0.1 µM, first compound 10 µM) of 9.67% and a viability, T/C [5] of 78%. The viability, T/C [6] was 73%, the viability, T/C [7] was 48.4% and the viability, T/C [8] was 23.9%. It also gave a viability, T/C (second compound 0.316 µM, first compound 3.16 µM) of 13.6%, a viability, T/C (second compound 0.316 µM, first compound 10 µM) of 8.99% and a viability, T/C [9] of 77.7%. It also gave a viability, T/C [10] of 73.2%, a viability, T/C [11] of 48.7% and a viability, T/C [12] of 22.8%. For the same compound, the viability, T/C (second compound 1 µM, first compound 3.16 µM) was 14.3%, the viability, T/C (second compound 1 µM, first compound 10 µM) was 9.42% and the viability, T/C [13] was 70.9%. It also gave a viability, T/C [14] of 67.9%, a viability, T/C [15] of 42.7% and a viability, T/C [16] of 20.8%. For the same compound, the viability, T/C (second compound 3.16 µM, first compound 3.16 µM) was 12.9%, the viability, T/C (second compound 3.16 µM, first compound 10 µM) was 10% and the viability, T/C [17] was 55.3%. For the same compound, the viability, T/C [18] was 49.3%, the viability, T/C [19] was 33.1% and the viability, T/C [20] was 21.1%. For the same compound, the viability, T/C (second compound 10 µM, first compound 3.16 µM) was 12.3% and the viability, T/C (second compound 10 µM, first compound 10 µM) was 7.61%.
